The IC50 is the midpoint of a concentration-inhibition curve.

This experiment deals with T1, chicken gizzard smooth muscle myosin subfragment-1 chemically crosslinked to cardiac or skeletal actin (Gallus gallus, UniProt P10587).
T1 construct: chicken gizzard smooth muscle myosin subfragment-1; from tissue; host or cells: chicken gizzard
T1 sequence (P02607 2-151): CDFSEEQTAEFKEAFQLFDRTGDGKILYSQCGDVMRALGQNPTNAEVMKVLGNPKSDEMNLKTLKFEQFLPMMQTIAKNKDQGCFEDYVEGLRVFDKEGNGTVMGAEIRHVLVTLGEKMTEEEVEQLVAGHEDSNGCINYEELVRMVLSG
T1 sequence (P10587 84-789): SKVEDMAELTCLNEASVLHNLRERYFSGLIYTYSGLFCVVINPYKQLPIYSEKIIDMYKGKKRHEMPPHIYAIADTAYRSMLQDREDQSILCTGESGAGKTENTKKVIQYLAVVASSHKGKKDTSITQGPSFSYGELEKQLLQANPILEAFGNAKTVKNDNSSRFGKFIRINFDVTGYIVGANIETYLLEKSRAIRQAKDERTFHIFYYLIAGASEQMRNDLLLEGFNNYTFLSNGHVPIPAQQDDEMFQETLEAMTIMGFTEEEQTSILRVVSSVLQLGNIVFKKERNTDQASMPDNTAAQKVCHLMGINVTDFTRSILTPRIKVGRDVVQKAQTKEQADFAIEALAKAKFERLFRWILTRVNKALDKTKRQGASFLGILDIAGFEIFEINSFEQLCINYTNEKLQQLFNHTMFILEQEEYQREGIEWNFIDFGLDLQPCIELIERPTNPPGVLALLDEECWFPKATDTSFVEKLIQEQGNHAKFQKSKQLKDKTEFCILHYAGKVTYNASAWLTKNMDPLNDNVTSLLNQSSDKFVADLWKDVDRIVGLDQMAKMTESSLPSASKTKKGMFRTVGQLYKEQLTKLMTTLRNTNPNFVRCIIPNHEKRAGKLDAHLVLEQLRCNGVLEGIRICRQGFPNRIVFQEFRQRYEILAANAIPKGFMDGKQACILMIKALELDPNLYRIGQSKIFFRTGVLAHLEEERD
Nature of the experiment: Smooth muscle myosin ATPase dose response assay (pyruvate kinase/horseradish peroxidase/pyruvate oxidase-coupled, amplex red fluorescence). The class given is biochemical. The note with it: read-out: IC50 Arithmetic Mean. In short, it runs like this:
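Chicken gizzard myosin S1 crosslinked to cardiac or skeletal actin, titrated to a set hydrolysis rate; 0.15 mM ATP, 12 mM PIPES pH 7.00, 100 mM KCl, 2 mM MgCl2. Pyruvate kinase/pyruvate oxidase/HRP coupling with amplex red fluorescence; IC50 from 4-parameter fit.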
Take `NCCCn1nccc1CNC(=O)c1ccc(-c2cc[nH]n2)nc1NCCc1cccc(F)c1` [N-{[1-(3-aminopropyl)pyrazol-5-yl]methyl}(2-{[2-(3-fluorophenyl)ethyl]amino}-6-pyrazol-3-yl(3-pyridyl))carboxamide]: the IC50 came out at 462 nM.

On to `NCCCn1nccc1CNC(=O)c1ccc(-c2cn[nH]c2)nc1NCCc1cccc(F)c1` [N-{[1-(3-aminopropyl)pyrazol-5-yl]methyl}(2-{[2-(3-fluorophenyl)ethyl]amino}-6-pyrazol-4-yl(3-pyridyl))carboxamide], for which the 50% inhibitory concentration (IC50) is 95 nM.

As for `N#Cc1ccccc1-c1ccc(C(=O)NCC2CCN(CCCN)C2)c(NCCc2cccc(F)c2)n1` (stereo not drawn) [N-{[1-(3-aminopropyl)pyrrolidin-3-yl]methyl}(6-(2-cyanophenyl)-2-{[2-(3-fluorophenyl)ethyl]amino}(3-pyridyl))carboxamide], the IC50 was 4790 nM.

For `N#Cc1ccccc1-c1ccc(C(=O)NCC2CCN(C(=O)CCCN)CC2)c(NCCc2cccc(F)c2)n1` [N-{[1-(4-aminobutanoyl)(4-piperidyl)]methyl}(6-(2-cyanophenyl)-2-{[2-(3-fluorophenyl)ethyl]amino}(3-pyridyl))carboxamide], the IC50 is 6010 nM.

As to `N#Cc1ccccc1-c1ccc(C(=O)NCC2CCCCCN2C(=O)CCCN)c(NCCc2cccc(F)c2)n1` (stereo not drawn) [N-{[1-(4-aminobutanoyl)azaperhydroepin-2-yl]methyl}(6-(2-cyanophenyl)-2-{[2-(3-fluorophenyl)ethyl]amino}(3-pyridyl))carboxamide], the IC50 was found to be 383 nM.

Take `N#Cc1ccccc1-c1ccc(C(=O)NCC2CCN(C(=O)CCCN)C2)c(NCCc2cccc(F)c2)n1` (stereo not drawn) [N-{[1-(4-aminobutanoyl)pyrrolidin-3-yl]methyl}(6-(2-cyanophenyl)-2-{[2-(3-fluorophenyl)ethyl]amino}(3-pyridyl))carboxamide]: the IC50 was found to be 433 nM.

Take `CS(=O)(=O)N1CCCC(CNC(=O)c2ccc(-c3ccccc3)nc2NCCc2ccccn2)C1` (stereo not drawn) [N-{[1-(methylsulfonyl)(3-piperidyl)]methyl}{6-phenyl-2-[(2-(2-pyridyl)ethyl)amino](3-pyridyl)}carboxamide]: the IC50 is 20300 nM.

Take `CC(=O)NCC1CCCCN1C(=O)c1ccc(-c2ccccc2)nc1NCCc1ccccn1` (stereo not drawn) [N-{[1-({6-phenyl-2-[(2-(2-pyridyl)ethyl)amino]-3-pyridyl}carbonyl)-2-piperidyl]methyl}acetamide]: the IC50 worked out at 21200 nM.

On to `N#Cc1ccccc1-c1ccc(C(=O)NCc2cccnc2CCN)c(NCCc2cccc(F)c2)n1` [N-{[2-(2-aminoethyl)(3-pyridyl)]methyl}(6-(2-cyanophenyl)-2-{[2-(3-fluorophenyl)ethyl]amino}(3-pyridyl))carboxamide], for which the IC50 was 6 nM.

As for `Cc1cc(C(=O)NCc2cccnc2CN)c(NCCc2cccc(F)c2)nc1-c1cnn(C)c1` [N-{[2-(aminomethyl)(3-pyridyl)]methyl}(2-{[2-(3-fluorophenyl)ethyl]amino}-5-methyl-6-(1-methylpyrazol-4-yl)(3-pyridyl))carboxamide], the IC50 worked out at 129 nM.

For `Cn1ccc(-c2ccc(C(=O)NCc3cccnc3CN)c(NCCc3cccc(F)c3)n2)n1` [N-{[2-(aminomethyl)(3-pyridyl)]methyl}(2-{[2-(3-fluorophenyl)ethyl]amino}-6-(1-methylpyrazol-3-yl)(3-pyridyl))carboxamide], the half-inhibitory concentration (IC50) was found to be 32 nM.

Regarding `NCc1ncccc1CNC(=O)c1ccc(-c2cnn(CCO)c2)nc1NCCc1cccc(F)c1` [N-{[2-(aminomethyl)(3-pyridyl)]methyl}(2-{[2-(3-fluorophenyl)ethyl]amino}-6-[1-(2-hydroxyethyl)pyrazol-4-yl](3-pyridyl))carboxamide], the IC50 worked out at 707 nM.

In the case of `NCc1ncccc1CNC(=O)c1ccc(-c2ccccc2)nc1NCCc1cccc(F)c1` [N-{[2-(aminomethyl)(3-pyridyl)]methyl}(2-{[2-(3-fluorophenyl)ethyl]amino}-6-phenyl(3-pyridyl))carboxamide], the IC50 stood at 8 nM.

On to `NCc1ncccc1CNC(=O)c1ccc(-c2cc[nH]n2)nc1NCCc1cccc(F)c1` [N-{[2-(aminomethyl)(3-pyridyl)]methyl}(2-{[2-(3-fluorophenyl)ethyl]amino}-6-pyrazol-3-yl(3-pyridyl))carboxamide], for which the IC50 was found to be 43 nM.

On to `NCc1ncccc1CNC(=O)c1ccc(-c2cn[nH]c2)nc1NCCc1cccc(F)c1` [N-{[2-(aminomethyl)(3-pyridyl)]methyl}(2-{[2-(3-fluorophenyl)ethyl]amino}-6-pyrazol-4-yl(3-pyridyl))carboxamide], for which the IC50 was 24 nM.

As for `Cn1cc(-c2nc(NCCc3cccc(F)c3)c(C(=O)NCc3cccnc3CN)cc2Cl)cn1` [N-{[2-(aminomethyl)(3-pyridyl)]methyl}(5-chloro-2-{[2-(3-fluorophenyl)ethyl]amino}-6-(1-methylpyrazol-4-yl)(3-pyridyl))carboxamide], the 50% inhibitory concentration (IC50) was 30 nM.

In the case of `Cn1cc(-c2nc(NCCc3cccc(F)c3)c(C(=O)NCc3cccnc3CN)cc2C#N)cn1` [N-{[2-(aminomethyl)(3-pyridyl)]methyl}(5-cyano-2-{[2-(3-fluorophenyl)ethyl]amino}-6-(1-methylpyrazol-4-yl)(3-pyridyl))carboxamide], the IC50 was determined as 50 nM.

For `N#Cc1cc(C(=O)NCc2cccnc2CN)c(NCCc2cccc(F)c2)nc1-c1cn[nH]c1` [N-{[2-(aminomethyl)(3-pyridyl)]methyl}(5-cyano-2-{[2-(3-fluorophenyl)ethyl]amino}-6-pyrazol-4-yl(3-pyridyl))carboxamide], the IC50 came out at 58 nM.

With `Cn1cc(-c2nc(NCCc3cccc(F)c3)c(C(=O)NCc3cccnc3CN)cc2F)cn1` [N-{[2-(aminomethyl)(3-pyridyl)]methyl}(5-fluoro-2-{[2-(3-fluorophenyl)ethyl]amino}-6-(1-methylpyrazol-4-yl)(3-pyridyl))carboxamide], the half-inhibitory concentration (IC50) came to 12 nM.

Regarding `NCc1ncccc1CNC(=O)c1cc(F)c(-c2ccccn2)nc1NCCc1cccc(F)c1` [N-{[2-(aminomethyl)(3-pyridyl)]methyl}(5-fluoro-2-{[2-(3-fluorophenyl)ethyl]amino}-6-(2-pyridyl)(3-pyridyl))carboxamide], the IC50 worked out at 66 nM.

With `NCc1ncccc1CNC(=O)c1cc(F)c(-c2cc[nH]n2)nc1NCCc1cccc(F)c1` [N-{[2-(aminomethyl)(3-pyridyl)]methyl}(5-fluoro-2-{[2-(3-fluorophenyl)ethyl]amino}-6-pyrazol-3-yl(3-pyridyl))carboxamide], the IC50 was 14 nM.

`NCc1ncccc1CNC(=O)c1cc(F)c(-c2cn[nH]c2)nc1NCCc1cccc(F)c1` [N-{[2-(aminomethyl)(3-pyridyl)]methyl}(5-fluoro-2-{[2-(3-fluorophenyl)ethyl]amino}-6-pyrazol-4-yl(3-pyridyl))carboxamide]: the concentration for half-maximal inhibition (IC50) is 12 nM.

As for `N#Cc1ccccc1-c1ccc(C(=O)NCc2cccnc2CN)c(NCCc2cccc(F)c2)n1` [N-{[2-(aminomethyl)(3-pyridyl)]methyl}(6-(2-cyanophenyl)-2-{[2-(3-fluorophenyl)ethyl]amino}(3-pyridyl))carboxamide], the half-inhibitory concentration (IC50) came out at 6 nM.

With `Cc1cc(C(=O)NCc2cccnc2CN)c(NCCc2cccc(F)c2)nc1-c1ccccc1C#N` [N-{[2-(aminomethyl)(3-pyridyl)]methyl}(6-(2-cyanophenyl)-2-{[2-(3-fluorophenyl)ethyl]amino}-5-methyl(3-pyridyl))carboxamide], the IC50 is 158 nM.

Turning to `N#Cc1ccccc1-c1nc(NCCc2cccc(F)c2)c(C(=O)NCc2cccnc2CN)cc1F` [N-{[2-(aminomethyl)(3-pyridyl)]methyl}(6-(2-cyanophenyl)-5-fluoro-2-{[2-(3-fluorophenyl)ethyl]amino}(3-pyridyl))carboxamide], the IC50 is 6 nM.

Turning to `NCc1ncccc1CNC(=O)c1ccc(-c2cn[nH]c2)nc1NCCc1ccccn1` [N-{[2-(aminomethyl)(3-pyridyl)]methyl}{6-pyrazol-4-yl-2-[(2-(2-pyridyl)ethyl)amino](3-pyridyl)}carboxamide], the IC50 is 1240 nM.

`N#Cc1ccccc1-c1ccc(C(=O)NCc2ccccc2CN)c(NCCc2cccc(F)c2)n1` [N-{[2-(aminomethyl)phenyl]methyl}(6-(2-cyanophenyl)-2-{[2-(3-fluorophenyl)ethyl]amino}(3-pyridyl))carboxamide]: the half-inhibitory concentration (IC50) worked out at 24 nM.

As for `N#Cc1ccccc1-c1ccc(C(=O)NCc2ncccc2CN)c(NCCc2cccc(F)c2)n1` [N-{[3-(aminomethyl)(2-pyridyl)]methyl}(6-(2-cyanophenyl)-2-{[2-(3-fluorophenyl)ethyl]amino}(3-pyridyl))carboxamide], the half-inhibitory concentration (IC50) is 624 nM.

Turning to `N#Cc1ccccc1-c1ccc(C(=O)NCc2ccncc2CN)c(NCCc2cccc(F)c2)n1` [N-{[3-(aminomethyl)(4-pyridyl)]methyl}(6-(2-cyanophenyl)-2-{[2-(3-fluorophenyl)ethyl]amino}(3-pyridyl))carboxamide], the IC50 amounted to 56 nM.

`N#Cc1ccccc1-c1ccc(C(=O)NCC2CCCC(CN)C2)c(NCCc2cccc(F)c2)n1` (stereo not drawn) [N-{[3-(aminomethyl)cyclohexyl]methyl}(6-(2-cyanophenyl)-2-{[2-(3-fluorophenyl)ethyl]amino}(3-pyridyl))carboxamide]: the IC50 was 352 nM.

For `N#Cc1ccccc1-c1ccc(C(=O)NCc2cccc(CN)c2)c(NCCc2cccc(F)c2)n1` [N-{[3-(aminomethyl)phenyl]methyl}(6-(2-cyanophenyl)-2-{[2-(3-fluorophenyl)ethyl]amino}(3-pyridyl))carboxamide], the concentration for half-maximal inhibition (IC50) worked out at 12 nM.

Consider `NCc1ccnc(CNC(=O)c2ccc(-c3ccccc3)nc2NCCc2cccc(F)c2)c1` [N-{[4-(aminomethyl)(2-pyridyl)]methyl}(2-{[2-(3-fluorophenyl)ethyl]amino}-6-phenyl(3-pyridyl))carboxamide], for which the IC50 came out at 1210 nM.

With `N#Cc1ccccc1-c1ccc(C(=O)NCc2cc(CN)ccn2)c(NCCc2cccc(F)c2)n1` [N-{[4-(aminomethyl)(2-pyridyl)]methyl}(6-(2-cyanophenyl)-2-{[2-(3-fluorophenyl)ethyl]amino}(3-pyridyl))carboxamide], the IC50 turned out to be 598 nM.

Source of the values: patent publication US7932270B2 (Cytokinetics, Inc., priority 2006, dated 2011).
